Results reported in PubChem BioAssay AID2060486 (Molecular Pharmacology Branch, DTP, NCI, 2025).
pIC50: −log10 of the molar value.

Test system: IGROV1 complex spheroids (HUVEC, MSC), viability % test/control
Experiment: Anticancer human tumor IGROV1 cell line growth inhibition [GQUAD];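 note: spheroids exposed to compounds for 7 days before readout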;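 for viability, T/C: 100% = DMSO vehicle control viability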
Conditions: for pIC50: curve of first compound; for viability, T/C: stronger effect = lower value
In short: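 Multi-cell-type spheroids of tumor cells with HUVEC and mesenchymal stem cells, treated with drug combinations. Concentrations descend in half-log steps from near clinical Cmax, or from 10 microM where Cmax is unknown; viability read-out.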

[1] = second compound 0.0316 µM, first compound 0.0316 µM
[2] = second compound 0.0316 µM, first compound 0.1 µM
[3] = second compound 0.0316 µM, first compound 0.316 µM
[4] = second compound 0.0316 µM, first compound 1 µM
[5] = second compound 0.0316 µM, first compound 3.16 µM
[6] = second compound 0.0316 µM, first compound 10 µM
[7] = second compound 0.1 µM, first compound 0.0316 µM
[8] = second compound 0.1 µM, first compound 0.1 µM
[9] = second compound 0.1 µM, first compound 0.316 µM
[10] = second compound 0.1 µM, first compound 1 µM
[11] = second compound 0.1 µM, first compound 3.16 µM
[12] = second compound 0.1 µM, first compound 10 µM
[13] = second compound 0.316 µM, first compound 0.0316 µM
[14] = second compound 0.316 µM, first compound 0.1 µM
[15] = second compound 0.316 µM, first compound 0.316 µM
[16] = second compound 0.316 µM, first compound 1 µM
[17] = second compound 0.316 µM, first compound 3.16 µM
[18] = second compound 0.316 µM, first compound 10 µM
[19] = second compound 1 µM, first compound 0.0316 µM
[20] = second compound 1 µM, first compound 0.1 µM
[21] = second compound 1 µM, first compound 0.316 µM
[22] = second compound 1 µM, first compound 1 µM
[23] = second compound 1 µM, first compound 3.16 µM
[24] = second compound 1 µM, first compound 10 µM
[25] = second compound 3.16 µM, first compound 0.0316 µM
[26] = second compound 3.16 µM, first compound 0.1 µM
[27] = second compound 3.16 µM, first compound 0.316 µM
[28] = second compound 3.16 µM, first compound 1 µM
[29] = second compound 3.16 µM, first compound 3.16 µM
[30] = second compound 3.16 µM, first compound 10 µM
[31] = second compound 10 µM, first compound 0.0316 µM
[32] = second compound 10 µM, first compound 0.1 µM
[33] = second compound 10 µM, first compound 0.316 µM
[34] = second compound 10 µM, first compound 1 µM
[35] = second compound 10 µM, first compound 3.16 µM
[36] = second compound 10 µM, first compound 10 µM

CC1COCCN1c1cc(-c2ccnn2C)c2ccnc(-c3ccn[nH]3)c2n1 (centres undefined) + Cc1[nH]c2ccc(F)cc2c1-c1nc2c3cccnc3c3ncccc3c2[nH]1
pIC50 (second compound 0.0316 µM): 7.20 | pIC50 (second compound 0.1 µM): 7.28 | pIC50 (second compound 0.316 µM): > 7.50 | pIC50 (second compound 1 µM): > 7.50 | pIC50 (second compound 3.16 µM): > 7.50 | pIC50 (second compound 10 µM): > 7.50 | viability, T/C [1]: 81.2% | viability, T/C [2]: 29.2% | viability, T/C [3]: 13.1% | viability, T/C [4]: 5.35% | viability, T/C [5]: 5.85% | viability, T/C [6]: 3.72% | viability, T/C [7]: 66.3% | viability, T/C [8]: 29.4% | viability, T/C [9]: 12.7% | viability, T/C [10]: 6.46% | viability, T/C [11]: 4.05% | viability, T/C [12]: 3.93% | viability, T/C [13]: 48.1% | viability, T/C [14]: 14.3% | viability, T/C [15]: 5.71% | viability, T/C [16]: 5.18% | viability, T/C [17]: 4.33% | viability, T/C [18]: 3.75% | viability, T/C [19]: 3.38% | viability, T/C [20]: 3.29% | viability, T/C [21]: 4.19% | viability, T/C [22]: 4.05% | viability, T/C [23]: 4.41% | viability, T/C [24]: 2.28% | viability, T/C [25]: 3.79% | viability, T/C [26]: 4.74% | viability, T/C [27]: 3.3% | viability, T/C [28]: 2.73% | viability, T/C [29]: 3.37% | viability, T/C [30]: 1.52% | viability, T/C [31]: 4.11% | viability, T/C [32]: 3.77% | viability, T/C [33]: 3.3% | viability, T/C [34]: 3.47% | viability, T/C [35]: 2.98% | viability, T/C [36]: 2.3%

CC1COCCN1c1cc(C2(O)CC3CCC(C2)O3)c2cnn(-c3ccn[nH]3)c2n1 (centres undefined) + Cc1[nH]c2ccc(F)cc2c1-c1nc2c3cccnc3c3ncccc3c2[nH]1
pIC50 (second compound 0.0316 µM): 7.42 | pIC50 (second compound 0.1 µM): 7.37 | pIC50 (second compound 0.316 µM): > 7.50 | pIC50 (second compound 1 µM): > 7.50 | pIC50 (second compound 3.16 µM): > 7.50 | pIC50 (second compound 10 µM): > 7.50 | viability, T/C [1]: 55.6% | viability, T/C [2]: 18.9% | viability, T/C [3]: 7.44% | viability, T/C [4]: 4.8% | viability, T/C [5]: 3.59% | viability, T/C [6]: 2.02% | viability, T/C [7]: 61% | viability, T/C [8]: 17.7% | viability, T/C [9]: 8.01% | viability, T/C [10]: 6.5% | viability, T/C [11]: 3.58% | viability, T/C [12]: 1.71% | viability, T/C [13]: 21.6% | viability, T/C [14]: 7.64% | viability, T/C [15]: 4.88% | viability, T/C [16]: 3.7% | viability, T/C [17]: 3.28% | viability, T/C [18]: 1.86% | viability, T/C [19]: 3% | viability, T/C [20]: 3.91% | viability, T/C [21]: 3.25% | viability, T/C [22]: 3.03% | viability, T/C [23]: 3.34% | viability, T/C [24]: 1.4% | viability, T/C [25]: 3.59% | viability, T/C [26]: 4.2% | viability, T/C [27]: 3.24% | viability, T/C [28]: 3.06% | viability, T/C [29]: 3.02% | viability, T/C [30]: 1.16% | viability, T/C [31]: 3.5% | viability, T/C [32]: 2.96% | viability, T/C [33]: 4.38% | viability, T/C [34]: 2.77% | viability, T/C [35]: 3% | viability, T/C [36]: 1.15%
